# Reference: PubChem BioAssay (NCI)
#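 How tested: cells in 96-well plates exposed to compound for 48 hours at five concentrations. GI50 marks 50% less growth. TGI: total growth inhibition.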
# What was measured:
# Test in all cases: NCI anticancer screen, dose series, 48 h
# [1] = system: U251 CNS
# [2] = system: M14 melanoma
# [3] = system: NCI/ADR-RES ovarian
# [4] = system: MDA-MB-435
# [5] = system: SNB-19 CNS
# [6] = system: SF-268 CNS
# [7] = system: HT29 colon
# [8] = system: UACC-62 melanoma
# [9] = system: SK-MEL-28 melanoma
# [10] = system: CCRF-CEM leukemia
# [11] = system: HOP-62 NSCLC
# [12] = system: 786-0 renal
# [13] = system: NCI-H23 lung
# [14] = system: KM12 colon
# [15] = system: A549 NSCLC
# [16] = system: SK-MEL-5 melanoma
# [17] = system: HCT-15 colon
# [18] = system: MOLT-4 leukemia
# [19] = system: ACHN renal
# [20] = system: HCC-2998 colon
# [21] = system: A498 renal
# [22] = system: SW-620 colon
# [23] = system: NCI-H226 lung
# [24] = system: LOX IMVI melanoma
# [25] = system: CAKI-1 renal
# [26] = system: K-562 leukemia
# [27] = system: HOP-92 NSCLC
# [28] = system: EKVX NSCLC
# [29] = system: SN12C renal
# [30] = system: OVCAR-3 ovarian
# [31] = system: SK-MEL-2 melanoma
# [32] = system: NCI-H522 lung
# [33] = system: OVCAR-5 ovarian
# [34] = system: IGROV1 ovarian
# [35] = system: UACC-257 melanoma
# [36] = system: SK-OV-3 ovarian
# [37] = system: DU-145 prostate
# [38] = system: PC-3 prostate
# [39] = system: HL-60(TB) leukemia
# [40] = system: MDA-MB-231 breast
# [41] = system: BT-549 breast
# [42] = system: SF-539 CNS
# [43] = system: NCI-H460 lung
# [44] = system: OVCAR-8 ovarian
# [45] = system: COLO 205 colon
# [46] = system: RPMI-8226 leukemia
# [47] = system: T-47D breast
# [48] = system: MCF7 breast
# [49] = system: SR leukemia
# [50] = system: HCT-116 colon
# [51] = system: SF-295 CNS
# [52] = system: TK-10 renal
# [53] = system: SNB-75 CNS
# [54] = system: HS 578T breast
# [55] = system: UO-31 renal
# [56] = system: OVCAR-4 ovarian
compound,measurement,setting,value
COc1cc(C2NC(=O)c3ccccc3N2)ccc1OCCCCCOc1c(OC)cc(C2=NOC(c3cc(OC)c(OC)c(OC)c3)C2)cc1OC (stereo unspecified),GI50,[1],19.6 µM
same,TGI,[1],> 100 µM
same,GI50,[2],20.4 µM
same,TGI,[2],> 93 µM
same,GI50,[3],12.7 µM
same,TGI,[3],> 51.8 µM
same,GI50,[4],499 nM
same,TGI,[4],> 100 µM
same,GI50,[5],16.6 µM
same,TGI,[5],> 88.8 µM
same,GI50,[6],20.8 µM
same,TGI,[6],> 100 µM
same,GI50,[7],> 100 µM
same,TGI,[7],> 100 µM
same,GI50,[8],506 nM
same,TGI,[8],> 100 µM
same,GI50,[9],4.13 µM
same,TGI,[9],> 100 µM
same,GI50,[10],627 nM
same,TGI,[10],> 77.6 µM
same,GI50,[11],17.3 µM
same,TGI,[11],61.3 µM
same,GI50,[12],27.4 µM
same,TGI,[12],> 78.7 µM
same,GI50,[13],484 nM
same,TGI,[13],> 80 µM
same,GI50,[14],7.59 µM
same,TGI,[14],98.8 µM
same,GI50,[15],2250 nM
same,TGI,[15],97.7 µM
same,GI50,[16],142 nM
same,TGI,[16],546 nM
same,GI50,[17],3.34 µM
same,TGI,[17],> 100 µM
same,GI50,[18],570 nM
same,TGI,[18],> 100 µM
same,GI50,[19],556 nM
same,TGI,[19],> 100 µM
same,GI50,[20],1140 nM
same,TGI,[20],37.8 µM
same,GI50,[21],19.5 µM
same,TGI,[21],> 76.8 µM
same,GI50,[22],14.7 µM
same,TGI,[22],> 100 µM
same,TGI,[23],> 100 µM
same,GI50,[24],16.7 µM
same,TGI,[24],> 100 µM
same,GI50,[25],> 42.4 µM
same,TGI,[25],> 100 µM
same,GI50,[26],431 nM
same,TGI,[26],> 100 µM
same,GI50,[27],60.2 µM
same,TGI,[27],> 100 µM
same,GI50,[28],365 nM
same,TGI,[28],> 100 µM
same,GI50,[29],31.3 µM
same,TGI,[29],> 100 µM
same,GI50,[30],12.6 µM
same,TGI,[30],44 µM
same,GI50,[31],35.9 µM
same,TGI,[31],> 100 µM
same,GI50,[32],17.1 µM
same,TGI,[32],> 56.2 µM
same,GI50,[33],33.9 µM
same,TGI,[33],> 94.3 µM
same,GI50,[34],601 nM
same,TGI,[34],> 71 µM
same,GI50,[35],296 nM
same,TGI,[35],69.9 µM
same,GI50,[36],31.1 µM
same,TGI,[36],> 100 µM
same,GI50,[37],22.5 µM
same,TGI,[37],> 82.7 µM
same,GI50,[38],4.62 µM
same,TGI,[38],> 66.5 µM
same,GI50,[39],11.7 µM
same,TGI,[39],> 53.9 µM
same,GI50,[40],14.8 µM
same,TGI,[40],> 75.4 µM
same,GI50,[41],507 nM
same,TGI,[41],> 100 µM
same,GI50,[42],19.4 µM
same,TGI,[42],84.7 µM
same,GI50,[43],14.2 µM
same,TGI,[43],67.2 µM
same,GI50,[44],25.2 µM
same,TGI,[44],> 100 µM
same,GI50,[45],> 59 µM
same,TGI,[45],> 100 µM
same,GI50,[46],75.4 nM
same,TGI,[46],1100 nM
same,GI50,[47],239 nM
same,TGI,[47],> 100 µM
same,GI50,[48],356 nM
same,TGI,[48],> 100 µM
same,GI50,[49],947 nM
same,TGI,[49],> 100 µM
same,GI50,[50],433 nM
same,TGI,[50],32.4 µM
same,GI50,[51],2540 nM
same,TGI,[51],> 100 µM
same,GI50,[52],> 100 µM
same,TGI,[52],> 100 µM
same,GI50,[53],19.6 µM
same,TGI,[53],> 100 µM
same,GI50,[54],15.7 µM
same,TGI,[54],> 82 µM
same,GI50,[55],15.1 µM
same,TGI,[55],> 100 µM
same,GI50,[56],417 nM
same,TGI,[56],> 100 µM
